Laboratory results as given in PMC6156125, “Chemistry and Hypoglycemic Activity of GPR119 Agonist ZB-16” (Frontiers in Endocrinology, 2018).
≈ marks a conversion by molar mass, not a printed value. Where “and” joins values, the source holds several entries; their conditions need not be identical. Identical values can stand only once. Like-named read-outs stand apart in the source and are kept apart here.

Tests used:
[1] = system: male Wistar rats with streptozotocin-nicotinamide induced type 2 diabetes mellitus (STZ-NA T2D); design: method as in PMID 28736546; conditions: 1 mg/kg/day orally for 28 day, ref [11]; cited from earlier work
human GPR119 (hGPR119) = biological target: T1, human GPR119 (hGPR119) (Homo sapiens, UniProt Q8TDV5); assay: Specific (agonistic) activity in vitro, cAMP increase (Lance Ultra cAMP kit) in CHO-K1 cells expressing hGPR119; format: cell-based; conditions: for EC50: CHO-K1 hGPR119, cAMP
T1 construct: expressed in transfected cells; host or cells: CHO-K1 (Chinese hamster ovary)
T1 sequence (Q8TDV5 1-335): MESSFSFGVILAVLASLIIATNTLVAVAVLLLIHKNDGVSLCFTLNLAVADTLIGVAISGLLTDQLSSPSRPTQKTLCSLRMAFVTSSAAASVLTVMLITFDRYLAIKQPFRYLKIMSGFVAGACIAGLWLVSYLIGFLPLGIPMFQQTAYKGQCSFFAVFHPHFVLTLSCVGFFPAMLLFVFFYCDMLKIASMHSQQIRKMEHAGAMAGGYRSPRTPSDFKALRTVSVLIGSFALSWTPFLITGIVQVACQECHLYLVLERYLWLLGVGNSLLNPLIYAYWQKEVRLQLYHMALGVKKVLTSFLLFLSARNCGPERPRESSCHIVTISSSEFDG
Description: Specific activity was evaluated using an immortalized Chinese hamster ovary cell line CHO-K1 steadily expressed human GPR119 (hGPR119). The cells (10^7 ml^−1) were cultured in Dulbecco's modified Eagle medium (DMEM) modified with 10% fetal bovine serum (FBS), revolved continuously at 50 rpm at 37°C in 8% CO2 for 3–4 days. Lance Ultra cAMP kit (Perkin Elmer, Waltham, MA, USA) was chosen as the experimental platform ([13]). The experiments were performed in accordance to the manufacturer's instructions. The agonistic activity of the test compounds was estimated by the increase in intracellular cAMP concentration, assuming the hGPR119 activation is followed by the activation of cellular adenylate cyclase, which increases intracellular cAMP levels ([4], [14]). Known agonists of hGPR119 receptors were used as positive controls to determine the maximal possible effect (MPE). The activity of test compounds was expressed in terms of median effective concentration (EC50).

[2] = Pharmacokinetics in vivo after single oral or intravenous administration; design: species or system rat; conditions: rats, 10 mg/kg; for Vd: read-out: Vz
Description: The pharmacokinetics of ZB-16 in a dose of 10 mg/kg after single oral or intravenous administration was studied in 6 male Wistar rats weighing 250–280 g. The blood from the tail vein (200 μL) was collected before and at 0, 0.25, 0.5, 1, 2, 4, 8, 12, and 24 h after ZB-16 administration. The blood concentrations of the test compounds in animals were evaluated using HPLC-MS/MS. Basic pharmacokinetic parameters were calculated using a non-model method and WinNonlin Professional 6.0 (Pharsight Corporation, Mountain View, CA, USA) based on the experimental concentration-time data obtained on each animal.

physchem = conditions: Britton-Robinson universal buffer, kinetic from dmso stock
[3] = Biotransformation in vitro, microsomal stability (human); format: in vitro ADME
Description: The metabolism of the compounds was studied in commercially available microsomal fractions derived from human and rat hepatocytes. Test compounds (0.5 μM) were incubated with microsomal fractions in the presence of NADPH during 30 min in a shaker at 37°C. Reactions were stopped at 0, 5, 10, 15, and 30 min by adding acetonitrile. After proteins precipitation, the remaining amount of the test compound in the supernatant was detected with high performance liquid chromatography tandem-mass spectrometry (HPLC-MS/MS) method using Agilent 1260 liquid chromatograph (Agilent Technologies, Santa Clara, CA, USA) and a QTRAP6500 triple quadrupole mass spectrometer with a TurboIonSpray electro-spraying module (ABSciex, Foster City, CA, USA) ([15]). Incubation was performed twice, with at least 2 measurements for each replicate (n ≥ 3). The half-life (T1/2), the clearance in vitro (CLint) and the remaining amount of substance (% of initial quantity) were calculated.

[4] = male, Wistar, rat, plasma, iv, i.v. injection, Mean ± SD (n = 3)
[5] = male, Wistar, rat, plasma, iv, i.v. injection, individual rat
[6] = male, Wistar, rat, plasma, po, oral administration, Mean ± SD (n = 3)
[7] = male, Wistar, rat, plasma, po, oral administration, individual rat
[8] = oral administration, individual rat

## O=S1(=O)COc2cc(-c3ccc(OCC4CCN(c5ncc(Cl)cn5)CC4)c(F)c3)ccc21 [ZB-16]
[1]
  blood glucose levels under fasting conditions: decreased
  glucose utilization: improved
  stimulated secretion of GLP-1 and insulin: increase
Human GPR119 (hGPR119)
  EC50: 7.25 nM
Human GPR119 (hGPR119); values of the text
  EC50: 7.3 to 9.7 nM
Human GPR119 (hGPR119); response normalized to control substance (Arena)
  type of agonism on GPR119: complete agonist
[2]; male, Wistar, plasma, iv, i.v. injection, individual rat, read-out: AUC 0-t
  AUC(0-t): 244 ng·h/mL
[2]; male, Wistar, plasma, oral administration, individual rat
  Tmax: 4 h
[2]; male, Wistar, rat, plasma, read-out: half-life
  half-life: > 12 h
[2]; male, Wistar, rat, plasma, oral vs i.v., read-out: absolute bioavailability
  bioavailability: 8%
[2]; [4]
  AUC(0-inf): 339 ± 97.2 ng·h/mL
  clearance: 100 mL/min/kg
  k el: 1.39e-05 s⁻¹
  Vd: 123 ± 18.1 L/kg
[2]; male, Wistar, rat, plasma, iv, i.v. injection, Mean ± SD (n = 3), read-out: AUC 0-t
  AUC(0-t): 218 ± 30.4 ng·h/mL
[2]; male, Wistar, rat, plasma, iv, i.v. injection, Mean ± SD (n = 3), read-out: C0
  C0: 32 ± 8.7 ng/mL
[2]; male, Wistar, rat, plasma, iv, i.v. injection, Mean ± SD (n = 3), read-out: MRT last
  MRT last: 9 ± 1 h
[2]; male, Wistar, rat, plasma, iv, i.v. injection, Mean ± SD (n = 3), read-out: t1/2 (converted)
  half-life: 15 ± 5.8 h
[2]; [5]
  AUC(0-inf): 441 ng·h/mL
  clearance: 83.3 mL/min/kg
  k el: 8.33e-06 s⁻¹
  Vd: 139 L/kg
[2]; male, Wistar, rat, plasma, iv, i.v. injection, individual rat, read-out: AUC 0-t
  AUC(0-t): 226 ng·h/mL
[2]; male, Wistar, rat, plasma, iv, i.v. injection, individual rat, read-out: C0
  C0: 29 ng/mL
[2]; male, Wistar, rat, plasma, iv, i.v. injection, individual rat, read-out: MRT last
  MRT last: 10 h
[2]; male, Wistar, rat, plasma, iv, i.v. injection, individual rat, read-out: t1/2 (converted)
  half-life: 21 h
[2]; [6]
  AUC(0-inf): 119 ± 11.9 ng·h/mL
  k el: 1.67e-05 s⁻¹
[2]; male, Wistar, rat, plasma, po, oral administration, Mean ± SD (n = 3), read-out: AUC 0-t
  AUC(0-t): 85 ± 17.6 ng·h/mL
[2]; male, Wistar, rat, plasma, po, oral administration, Mean ± SD (n = 3), read-out: Cmax
  Cmax: 6 ± 1.2 ng/mL
[2]; male, Wistar, rat, plasma, po, oral administration, Mean ± SD (n = 3), read-out: MRT last
  MRT last: 9 ± 1 h
[2]; male, Wistar, rat, plasma, po, oral administration, Mean ± SD (n = 3), read-out: t1/2 (converted)
  half-life: 13 ± 5.2 h
[2]; [7]
  AUC(0-inf): 124 ng·h/mL
  k el: 1.11e-05 s⁻¹
[2]; male, Wistar, rat, plasma, po, oral administration, individual rat, read-out: AUC 0-t
  AUC(0-t): 69 ng·h/mL
[2]; male, Wistar, rat, plasma, po, oral administration, individual rat, read-out: Cmax
  Cmax: 4 ng/mL
[2]; male, Wistar, rat, plasma, po, oral administration, individual rat, read-out: MRT last
  MRT last: 10 h
[2]; male, Wistar, rat, plasma, po, oral administration, individual rat, read-out: t1/2 (converted)
  half-life: 19 h
[2]; i.v. injection, individual rat
  AUC 0−∞: 247 ng·h/mL and 329 ng·h/mL
  AUC(0-t): 184 ng·h/mL
  C0: 26 ng/mL and 42 ng/mL
  CL: 130 mL/min/kg
  Kel: 0.06 h⁻¹
  MRT last: 8 h
  Vz: 127 L/kg and 104 L/kg
  t1/2: 11 h and 12 h
[2]; [8]
  AUC 0−∞: 128 ng·h/mL and 105 ng·h/mL
  AUC(0-t): 104 ng·h/mL and 83 ng·h/mL
  Cmax: 7 ng/mL
  Kel: 0.07 h⁻¹
  t1/2: 10 H
physchem; pH 2, aqueous buffer
  solubility: 52 µM (≈ 25.5 µg/mL)
physchem; pH 4, aqueous buffer
  solubility: < 3 µM
physchem; pH 7, aqueous buffer
  solubility: 4 µM (≈ 1.96 µg/mL)
[3]; Human microsomal fraction
  ER: 0.76
[3]; Human microsomal fraction, in mL/min/kg (unit assumed)
  CLh: 16.43
[3]; liver microsomal fraction
  microsomal CLint at 0.5 μM: 65.2 µL/min/mg
[3]; liver microsomal fraction, 0.5 μM, NADPH, read-out: t1/2, min
  half-life at 0.5 μM: 0.709 h
